Entries after “also recorded” stand apart in the source; their conditions may differ. Read-outs that look alike come from different tables or passages of the source.
Columns and labels:
lipase [1] = experiment: Influence of surface active agents on the enzymatic activity (residual activity); format: biochemical, Pseudomonas fragi 22.39B; conditions: for Residual activity, %: 9:1 by volume mixture of 10 U/ml enzyme solution and 4% aqueous solution of surface active agent, 25°C, 30 minutes; for Effect of surface active agents on the enzyme (in words): summary statement
Description: Thus, the chemical and physical properties, by which the inventive novel lipase is characterized, are as described below.
Similarly, the influence of surface active agents on the enzymatic activity was examined by keeping a 9:1 by volume mixture of a 10 U/ml solution of the enzyme and a 4% aqueous solution of the surface active agent at 25°C for 30 minutes followed by the determination of the residual activity of the enzyme in the solution.

lipase [2] = experiment: Substrate specificity: relative rate of decomposition of esters, oils and fats (shaking method); format: biochemical, Pseudomonas fragi 22.39B; conditions: for Relative rate of decomposition, %: ester as the substrate, triolein as the reference (100), shaking method, pH 9.0, 37°C, 30 minutes; for Activity of the enzyme for the decomposition of the substrate (in words): summary statement
Excerpt: The enzyme is active for the decomposition of the substrate, such as various kinds of esters and naturally occurring oils and fats. Tables 1-1 and 1-2 given below give the relative rate of decomposition of esters (Table 1-1) and naturally occurring oils and fats (Table 1-2) in % taking triolein and olive oil, respectively, as the reference.
Different from the above mentioned standard procedure of the PVA emulsion method, the results tabulated in Tables 1-1 and 1-2 were obtained by the shaking method according to the conditions and procedures described below.
The solution described above was taken in an Erlenmeyer flask of 100 ml capacity and shaken for 30 minutes in a thermostat at 37°C at a rate of 90 rpm along an 8-shaped line. After completion of the above mentioned reaction time, 20 ml of a 1:1 mixture of acetone and ethyl alcohol were added to the flask and the resultant solution was titrated within a length of time with a 0.05N aqueous solution of sodium hydroxide using phenol phthalein as the indicator.

lipase [3] = conditions: J. Ferment. Technol. 49, 128 (1971); Japanese Patent Publication 50-25553; cited from earlier work
lipase [4] = target: lipase (Pseudomonas aeruginosa, UniProt P26876); conditions: Biochim. Biophys. Acta 206, 380-391 (1970); cited from earlier work
lipase [5] = target: T1, lipase (Pseudomonas fragi, UniProt P08658); conditions: J. Gen. Microbiol. 48, 317-328 (1967); cited from earlier work
T1 sequence (P08658 1-293): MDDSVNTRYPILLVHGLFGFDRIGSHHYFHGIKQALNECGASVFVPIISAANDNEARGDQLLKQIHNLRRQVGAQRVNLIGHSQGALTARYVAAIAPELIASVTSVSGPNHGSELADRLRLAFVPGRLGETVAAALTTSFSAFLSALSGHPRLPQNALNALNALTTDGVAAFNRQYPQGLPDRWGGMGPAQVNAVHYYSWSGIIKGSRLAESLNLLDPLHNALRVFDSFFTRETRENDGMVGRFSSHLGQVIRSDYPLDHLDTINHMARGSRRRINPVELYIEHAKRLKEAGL

lipase [6] = format: biochemical, Pseudomonas fragi 22.39B; conditions: for Effect of metal ions on the enzyme (in words): summary statement
Description: Thus, the chemical and physical properties, by which the inventive novel lipase is characterized, are as described below. The activity of the enzyme has been determined by the PVA emulsion method proposed by Yamada, et al. and described in Journal of the Agricultural Chemical Society of Japan, volume 36, page 860 (1962) with some modifications if not mentioned otherwise, taking an amount of the enzyme liberating a micro- equivalent of a fatty acid for 1 minute as one unit (U) (see Japanese Patent Publication 56-28517).
The influence of metal ions on the enzymatic actvity was examined by keeping a 9:1 by volume mixture of a 5U/ml solution of the enzyme and a 10 mM solution of the metal ions at 25°C for 30 minutes followed by the determination of the residual activity of the enzyme in the solution. No calcium chloride was contained in the reaction mixture.

lipase [7] = conditions: Biochim. Biophys. Acta 488, 353-358 (1977); cited from earlier work
lipase [8] = conditions: J. Ferment. Technol. 49, 128 (1971); Japanese Patent Publication 50-25553; cited from earlier work; remark: listed apart in the source
lipase [9] = conditions: Biochim. Biophys. Acta 488, 353-358 (1977); cited from earlier work; remark: listed apart in the source
[10] = 9:1 by volume mixture of 5U/ml enzyme solution and 10 mM metal ion solution, 25°C, 30 minutes, no calcium chloride

lipase (Pseudomonas aeruginosa, UniProt P26876), sequence (P26876 27-311): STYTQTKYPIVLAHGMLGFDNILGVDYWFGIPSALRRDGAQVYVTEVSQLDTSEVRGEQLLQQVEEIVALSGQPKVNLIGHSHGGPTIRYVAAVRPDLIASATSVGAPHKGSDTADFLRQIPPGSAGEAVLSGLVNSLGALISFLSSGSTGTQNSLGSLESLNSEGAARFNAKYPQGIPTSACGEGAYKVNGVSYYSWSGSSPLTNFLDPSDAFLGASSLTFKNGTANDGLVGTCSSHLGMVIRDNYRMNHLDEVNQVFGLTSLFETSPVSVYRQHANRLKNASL

## CCCCCCCCCCCC[N+](C)(C)C.[Br-] [n-Dodecyl trimethyl ammonium bromide]
Lipase [1]
  Residual activity, %: 46%

## Polyoxyethylene (10) oleyl ether
Lipase [1]
  Residual activity, %: 55%

## CCCCCCCC/C=C\CCCCCCCC(=O)OCCCC [Butyl oleate]
Lipase [2]
  Relative rate of decomposition, %: 95%
  Activity of the enzyme for the decomposition of the substrate (in words): Active; also recorded: good activity

## Sorbitan monooleate [Sorbitan monooleate (Span 80)]
Lipase [2]
  Relative rate of decomposition, %: 36%
Lipase [1]
  Residual activity, %: 56%

## CCCCCCCCCCCCCCCC[N+](C)(C)C.[Br-] [Cetyl trimethyl ammonium bromide]
Lipase [1]
  Residual activity, %: 12%
  Effect of surface active agents on the enzyme (in words): deactivated

## CCCC(=O)OCC(COC(=O)CCC)OC(=O)CCC [Tributyrin]
Lipase [2]
  Relative rate of decomposition, %: 243%
  Activity of the enzyme for the decomposition of the substrate (in words): highly active
Lipase [3]
  Substrate specificity (in words): Active
Lipase [4]
  Substrate specificity (in words): Active
Lipase [5]
  Substrate specificity (in words): Active

## CC(=O)OCC(COC(C)=O)OC(C)=O [Triacetin]
Lipase [2]
  Relative rate of decomposition, %: 108%
  Activity of the enzyme for the decomposition of the substrate (in words): highly active

## [Cl][Pb][Cl] [PbCl2]
Lipase [6]; [10]
  Residual activity, %: 78.0%

## KCl
Lipase [6]; [10]
  Residual activity, %: 98.0%

## LiCl
Lipase [6]; [10]
  Residual activity, %: 97.5%

## [Cl][Cu][Cl] [CuCl2]
Lipase [6]; [10]
  Residual activity, %: 90.8%

## [Cl][Ni][Cl] [NiCl2]
Lipase [6]; [10]
  Residual activity, %: 98.9%

## Sorbitan monolaurate [Sorbitan monolaurate (Span 20)]
Lipase [2]
  Relative rate of decomposition, %: 66%

## [Cl][Ag] [AgCl]
Lipase [6]; [10]
  Residual activity, %: 93.6%

## CCCCCCCC/C=C\CCCCCCCC(=O)OCCOCC(OCCO)C1OCC(OCCO)C1OCCO (stereo not drawn) [Polyoxyethylene sorbitan monooleate]
Lipase [2]
  Relative rate of decomposition, %: 50%
Lipase [1]
  Residual activity, %: 115%

## [Cl-].[Cl-].[Zn+2] [ZnCl2, zinc chloride]
Lipase [6]; [10]
  Residual activity, %: 34.9%
Lipase [6]
  Effect of metal ions on the enzyme (in words): Deactivated
Lipase [6]; listed as Zn^2+
  Effect of metal ions on the enzyme (in words): deactivated; also recorded: deactivating effect

## CCCCCC(=O)OCC(COC(=O)CCCCC)OC(=O)CCCCC [tricaproin]
Lipase [7]
  Substrate specificity (in words): Active

## [Cl-].[Cl-].[Co+2] [CoCl2]
Lipase [6]; [10]
  Residual activity, %: 86.6%

## copper sulfate
Lipase [8]
  Activation and deactivation (in words): Inhibited

## Polyoxyethylene (10) octyl phenyl ether
Lipase [1]
  Residual activity, %: 105%
  Effect of surface active agents on the enzyme (in words): somewhat increased

## [Ca+2].[Cl-].[Cl-] [CaCl2]
Lipase [6]; [10]
  Residual activity, %: 105.5%

## [Cl][Al]([Cl])[Cl] [AlCl3]
Lipase [6]; [10]
  Residual activity, %: 93.6%

## CCCCCCCCCCCC[N+](C)(C)C.[Cl-] [Dodecyl trimethyl ammonium chloride]
Lipase [1]
  Residual activity, %: 35%

## CCCC(=O)OC [Methyl butyrate]
Lipase [2]
  Relative rate of decomposition, %: 23%
Lipase [3]
  Substrate specificity (in words): little active
Lipase [5]
  Substrate specificity (in words): inactive

## [Cl-].[Cl-].[Sr+2] [SrCl2]
Lipase [6]; [10]
  Residual activity, %: 92.7%

## CCCCCCCCCCCCCCCC(=O)OCC(COC(=O)CCCCCCCCCCCCCCC)OC(=O)CCCCCCCCCCCCCCC [tri- palmitin]
Lipase [7]
  Substrate specificity (in words): Active

## [Cl][Hg][Cl] [HgCl2, mercury (II) chloride]
Lipase [6]; [10]
  Residual activity, %: 83.5%
Lipase [9]
  Activation and deactivation (in words): Almost no deactivation
Lipase [8]
  Activation and deactivation (in words): Inhibited

## NaCl
Lipase [6]; 1000 µM
  Residual activity, %: 98.0%

## CCCCCCCC/C=C\CCCCCCCC(=O)OCC [Ethyl oleate]
Lipase [2]
  Relative rate of decomposition, %: 59%

## [Ba+2].[Cl-].[Cl-] [BaCl2]
Lipase [6]; [10]
  Residual activity, %: 92.7%

## [Cl][Fe][Cl] [FeCl2, iron (II) chloride]
Lipase [6]; [10]
  Residual activity, %: 36.7%
Lipase [6]
  Effect of metal ions on the enzyme (in words): Deactivated

## [Cl][Fe]([Cl])[Cl] [FeCl3, iron (III) chloride]
Lipase [6]; [10]
  Residual activity, %: 33.0%
Lipase [6]
  Effect of metal ions on the enzyme (in words): Deactivated
Lipase [9]
  Activation and deactivation (in words): Almost no deactivation
Lipase [8]
  Activation and deactivation (in words): Inhibited

## [Cl][Mn][Cl] [MnCl2]
Lipase [6]; [10]
  Residual activity, %: 81.7%

## [Cl][Sn][Cl] [SnCl2]
Lipase [6]; [10]
  Residual activity, %: 79.8%

## CCCCCCCC/C=C\CCCCCCCC(=O)OC [Methyl oleate]
Lipase [2]
  Relative rate of decomposition, %: 87%
Lipase [2]; listed as methyl - oleate
  Activity of the enzyme for the decomposition of the substrate (in words): good activity
Lipase [2]; listed as methyl oleate
  Activity of the enzyme for the decomposition of the substrate (in words): Active
Lipase [5]
  Substrate specificity (in words): inactive

## [Cl-].[Cl-].[Mg+2] [MgCl2]
Lipase [6]; [10]
  Residual activity, %: 97.2%

## CCCCCCCCCCCCCC(=O)OCC(COC(=O)CCCCCCCCCCCCC)OC(=O)CCCCCCCCCCCCC [trimyristin]
Lipase [3]
  Substrate specificity (in words): Active

— patent publication EP0204284A2, “A novel lipase” (SAPPORO BREWERIES LIMITED, priority 1985, dated 1986)
